Experimental data taken from US4146719A, “Piperazinyl derivatives of quinoline carboxylic acids” (priority 1977, dated 1979).
In brackets after ≈: the same amount, converted by molar mass. Entries after “also recorded” stand apart in the source; their conditions may differ. Read-outs that look alike come from different tables or passages of the source.

Columns and labels:
[1] = tested on: Staphylococcus aureus 209P; assay: Antibacterial activity in vitro, M.I.C., agar dilution streak method; format: cell-based; settings: Staphylococcus aureus, 209P; Gram +; read-out: M.I.C.
Str. pyogenes S-8 = assay: as above; format: cell-based, Streptococcus pyogenes; settings: Streptococcus pyogenes, S8; Gram +; read-out: M.I.C.
Str. faecalis IID 682 = assay: as above; format: cell-based; settings: Enterococcus faecalis, IID682; Gram +
[2] = tested on: Diplococcus pneumoniae IID 552; assay: as above; format: cell-based; settings: Streptococcus pneumoniae, IID552; Gram +; read-out: M.I.C.
My. smegmatis IFO 3083 = assay: as above; format: cell-based; settings: Mycolicibacterium smegmatis, IFO3083; Gram +; read-out: M.I.C.
E. coli ATCC 10536 = assay: as above; format: cell-based, Escherichia coli; settings: Escherichia coli, ATCC10536; Gram -; read-out: M.I.C.
[3] = tested on: Proteus vulgaris IFO 3167; assay: as above; format: cell-based; settings: Proteus vulgaris, IFO3167; Gram -; read-out: M.I.C.
Pr. vulgaris XK Denken = assay: as above; format: cell-based, Proteus vulgaris; settings: Proteus vulgaris; Gram -; read-out: M.I.C.
Shigella sonnei IID 969 = assay: as above; format: cell-based; settings: Shigella sonnei, IID969; Gram -
[4] = tested on: Haemophilus influenzae IID 986; assay: as above; format: cell-based; settings: Haemophilus influenzae, IID986; Gram -; read-out: M.I.C.
Ps. aeruginosa IFO 12689 = assay: as above; format: cell-based, Pseudomonas aeruginosa; settings: Pseudomonas aeruginosa, IFO12689; Gram -; read-out: M.I.C.
Ps. aeruginosa IID 1130 = assay: as above; format: cell-based, Pseudomonas aeruginosa; settings: Pseudomonas aeruginosa, IID1130; Gram -; read-out: M.I.C.
[5] = Chelate formation with ferric ion; format: physicochemical; settings: one third molar equivalent of ferric chloride hexahydrate, molar equivalent of sodium hydroxide, water
Description: It is known that most of drugs such as Quinoform and Ethambutol which form chelates with metal ions in vivo produce undesirable side effects.

[6] = tested on: Pseudomonas aeruginosa IID 1210; assay: Preventive effect against systemic infection with Pseudomonas aeruginosa in mice; format: in vivo, Pseudomonas aeruginosa; mice (ddY, male)
Experimental: Systemic infection was produced by inoculating male mice (strain: ddY, 6 weeks old, body weight: 28-33g) in intraperitoneally with Pseudomonas aeruginosa IID 1210 suspended in 0.5 ml of Brain heart infusion broth (Eiken) containing 5% mucin. […] Each of these test materials was administered to the mice twice, immediately after and then 6 hours after the inoculation, and the therapeutic effect of each compounds was judged from the survival rate.
(1) Miller L. C. and M. L. Tainter: Estimation of the ED50 and its error by means of logarithmic-probit graph paper Proc. Soc. Exp. Biol. Med. 57 261-264 (1944)
(2) Litchfield J. T. and F. Wilcoxon: A simplified method of evaluating dose - effect J. Pharmacol. 92 99-113 (1948)

[7] = Serum concentrations after a single oral administration of 50 mg/kg in rats; format: in vivo; settings: rat, 50 mg/kg oral
[8] = tested on: Escherichia coli NIHJ JC-2; assay: Influence of serum on antibacterial activity; format: cell-based
Experimental: (§1) Nutrient agar was heated and melted. […] The diameter of the inhibition zone was measured.

[9] = tested on: Escherichia coli NIHJ JC-2; assay: Influence of kidney homogenate on antibacterial activity; format: cell-based
Experimental: as §1

[10] = Concentrations in urine of mice after a single oral administration; format: in vivo; settings: mouse; for concentration at 3 h: 0-3 hours; for concentration at 3 h / concentration at 6 h / concentration at 24 h / concentration at 27 h: mean ±S.E., read-out: Urinary level; for concentration at 6 h: 3-6 hours; for concentration at 24 h: 6-24 hours; for concentration at 27 h: 24-27 hours
[11] = rat, in vivo
[12] = rat, in vivo, po, 50 mg/kg
Experimental: (§2) Nutrient agar was heated and melted. Escherichia coli NIHJ JC-2 was added to melted agar, and well mixed, and 5 ml of the mixture was placed in Petri dish. Penicylinders were placed on the solidified agar, and the cylinder was filled with serum sample. The plate was placed in the incubator of 37° C. for 20 hours. The diameter of the inhibition zone was measured.
(§3) The tissue homogenates were prepared with 1:4 homogenates in M/15 phosphate buffer (pH 7.5).

in vivo = settings: rat, po, 50 mg/kg
Experimental: as §2, §3

[13] = Serum concentrations at 30 min. after a single oral administration in rats; settings: rat

Which MIC [1] does the source give for `CCn1cc(C(=O)O)c(=O)c2cc(F)c(N3CCNCC3)cc21` [Compound (II), 1-ethyl-6-fluoro-1,4-dihydro-7-(1-piperazinyl)-4-oxoquinoline-3-carboxylicacid] here?
The MIC was 0.78 µg/mL (≈ 2.44 µM).

And the MIC (Str. pyogenes S-8)?
Its MIC is 1.56 µg/mL (≈ 4.89 µM).

And the MIC (Str. faecalis IID 682)?
Its MIC is 3.13 µg/mL.

What about the MIC [2] of the same compound?
The MIC was 12.5 µg/mL (≈ 39.1 µM).

What about the MIC (My. smegmatis IFO 3083) of the same compound?
Its MIC is 1.56 µg/mL (≈ 4.89 µM).

What about the MIC (E. coli ATCC 10536) of the same compound?
Its MIC is 0.05 µg/mL (≈ 0.157 µM).

What about the MIC [3] of the same compound?
Its MIC is 0.05 µg/mL (≈ 0.157 µM).

What about the MIC (Pr. vulgaris XK Denken) of the same compound?
The MIC was 0.2 µg/mL (≈ 0.626 µM).

What about the MIC (Shigella sonnei IID 969) of the same compound?
Its MIC is 0.1 µg/mL (≈ 0.313 µM).

What about the MIC [4] of the same compound?
The MIC was 0.05 µg/mL (≈ 0.157 µM).

And the MIC (Ps. aeruginosa IFO 12689)?
Its MIC is 1.56 µg/mL (≈ 4.89 µM).

What about the MIC (Ps. aeruginosa IID 1130) of the same compound?
The MIC was 0.78 µg/mL (≈ 2.44 µM).

And the “chelate compound with ferric ion” value [5]?
The value was “did not give any chelate compound when treated with ferric ion”.

What about the ED90 ([6]; Pseudomonas aeruginosa, IID1210) of the same compound?
The ED90 was 185 mg/kg.

And the ED50 ([6]; Pseudomonas aeruginosa, IID1210, po, 6 h, read-out: ED50 (95% confidence limit))?
The ED50 was 98 mg/kg.

And the “protection against systemic infection (in words)” value ([6]; mice, listed as EXAMPLE 2)?
The value was “effectively protected the mice from Pseudomonas aeruginosa infection; also recorded: more potent than pipemidic acid and carbenicillin”.

What about the “absorption (in words)” value [7] of the same compound?
The value was “rapid”.

And the concentration at 0.5 h ([7]; serum, 0.5 hours)?
The concentration at 0.5 h was 870 ± 110 ng/mL.

What about the concentration at 1 h ([7]; serum, 1 hour) of the same compound?
Its concentration at 1 h is 770 ± 130 ng/mL.

And the concentration at 2 h ([7]; serum, 2 hours)?
Its concentration at 2 h is 520 ± 100 ng/mL.

And the concentration at 4 h ([7]; serum, 4 hours)?
The concentration at 4 h was 230 ± 20 ng/mL.

What about the concentration at 6 h ([7]; serum, 6 hours) of the same compound?
The concentration at 6 h was 110 ± 10 ng/mL.

And the Tmax ([7]; serum, read-out: time of concentration peak in serum (converted))?
Its Tmax is 30 min.

What about the “antibacterial activity in presence of serum (in words)” value [8] of the same compound?
The value was “not decreased by serum”.

What about the “antibacterial activity in presence of kidney homogenate (in words)” value [9] of the same compound?
Its value is “decreased by liver and kidney homogenate”.

What about the concentration at 3 h ([10]; 1.56 mg/kg oral) of the same compound?
Its concentration at 3 h is 530 ± 60 ng/mL.

What about the concentration at 6 h ([10]; 1.56 mg/kg oral) of the same compound?
The concentration at 6 h was 220 ± 40 ng/mL.

What about the concentration at 24 h ([10]; 1.56 mg/kg oral) of the same compound?
Its concentration at 24 h is 40 ± 30 ng/mL.

What about the concentration at 27 h ([10]; 1.56 mg/kg oral) of the same compound?
Its concentration at 27 h is 30 ± 20 ng/mL.

What about the concentration at 3 h ([10]; 3.13 mg/kg oral) of the same compound?
Its concentration at 3 h is 1760 ± 190 ng/mL.

What about the concentration at 6 h ([10]; 3.13 mg/kg oral) of the same compound?
The concentration at 6 h was 1460 ± 230 ng/mL.

What about the concentration at 24 h ([10]; 3.13 mg/kg oral) of the same compound?
The concentration at 24 h was 270 ± 40 ng/mL.

What about the concentration at 27 h ([10]; 3.13 mg/kg oral) of the same compound?
The concentration at 27 h was 140 ± 10 ng/mL.

And the concentration at 3 h ([10]; 6.25 mg/kg oral)?
Its concentration at 3 h is 3700 ± 260 ng/mL.

What about the concentration at 6 h ([10]; 6.25 mg/kg oral) of the same compound?
The concentration at 6 h was 2040 ± 130 ng/mL.

What about the concentration at 24 h ([10]; 6.25 mg/kg oral) of the same compound?
The concentration at 24 h was 3010 ± 170 ng/mL.

And the concentration at 27 h ([10]; 6.25 mg/kg oral)?
The concentration at 27 h was 380 ± 50 ng/mL.

What about the concentration at 3 h ([10]; 12.5 mg/kg oral) of the same compound?
The concentration at 3 h was 10300 ± 900 ng/mL.

What about the concentration at 6 h ([10]; 12.5 mg/kg oral) of the same compound?
The concentration at 6 h was 8300 ± 700 ng/mL.

What about the concentration at 24 h ([10]; 12.5 mg/kg oral) of the same compound?
The concentration at 24 h was 7400 ± 800 ng/mL.

What about the concentration at 27 h ([10]; 12.5 mg/kg oral) of the same compound?
The concentration at 27 h was 1200 ± 100 ng/mL.

What about the concentration at 3 h ([10]; 25.0 mg/kg oral) of the same compound?
The concentration at 3 h was 16200 ± 3300 ng/mL.

What about the concentration at 6 h ([10]; 25.0 mg/kg oral) of the same compound?
Its concentration at 6 h is 20300 ± 1700 ng/mL.

What about the concentration at 24 h ([10]; 25.0 mg/kg oral) of the same compound?
The concentration at 24 h was 11700 ± 900 ng/mL.

And the concentration at 27 h ([10]; 25.0 mg/kg oral)?
Its concentration at 27 h is 2500 ± 200 ng/mL.

What about the concentration at 3 h ([10]; 50.0 mg/kg oral) of the same compound?
Its concentration at 3 h is 33100 ± 2800 ng/mL.

What about the concentration at 6 h ([10]; 50.0 mg/kg oral) of the same compound?
The concentration at 6 h was 27200 ± 3200 ng/mL.

And the concentration at 24 h ([10]; 50.0 mg/kg oral)?
Its concentration at 24 h is 23100 ± 2000 ng/mL.

What about the concentration at 27 h ([10]; 50.0 mg/kg oral) of the same compound?
The concentration at 27 h was 7700 ± 1100 ng/mL.

What about the Tmax ([10]; oral, read-out: time of concentrations peak in urine) of the same compound?
Its Tmax is 0 to 360 min.

And the “dose dependence of serum concentration (in words)” value [11]?
Its value is “depended on the dose from 25 mg/kg to 400 mg/kg”.

What about the “Tissue level, kidney (free concentration)” value ([12]; 30 min) of the same compound?
Its value is 7.4 ± 1.4 µg/g.

And the “Tissue level, kidney (free concentration)” value ([12]; 60 min)?
Its value is 6.8 ± 1.2 µg/g.

What about the “Tissue level, kidney (free concentration)” value ([12]; 120 min) of the same compound?
Its value is 4.4 ± 0.6 µg/g.

What about the “Tissue level, kidney (free concentration)” value ([12]; 240 min) of the same compound?
The value was 1.9 ± 0.2 µg/g.

What about the “Tissue level, kidney (free concentration)” value ([12]; 360 min) of the same compound?
The value was 1.0 ± 0.1 µg/g.

What about the concentration at 0.5 h (in vivo) of the same compound?
Its concentration at 0.5 h is 11100 ± 2100 ng/g.

And the concentration at 1 h (in vivo)?
The concentration at 1 h was 10300 ± 2000 ng/g.

And the concentration at 2 h (in vivo)?
The concentration at 2 h was 6500 ± 900 ng/g.

What about the concentration at 4 h (in vivo) of the same compound?
The concentration at 4 h was 3500 ± 900 ng/g.

And the concentration at 6 h (in vivo)?
Its concentration at 6 h is 1400 ± 100 ng/g.

And the concentration at 0.5 h ([13]; 25 mg/kg)?
The concentration at 0.5 h was 310 ± 40 ng/mL.

What about the concentration at 0.5 h ([13]; 50 mg/kg) of the same compound?
Its concentration at 0.5 h is 870 ± 110 ng/mL.

What about the concentration at 0.5 h ([13]; 100 mg/kg) of the same compound?
The concentration at 0.5 h was 1420 ± 230 ng/mL.

And the concentration at 0.5 h ([13]; 200 mg/kg)?
The concentration at 0.5 h was 2230 ± 300 ng/mL.

What about the concentration at 0.5 h ([13]; 400 mg/kg) of the same compound?
The concentration at 0.5 h was 3370 ± 350 ng/mL.
